Molecular target: T1, Recombinant human EP300 containing the bromodomain (EP300-BD (1040-1161)) (Homo sapiens, UniProt Q09472)
T1 construct: Recombinant human EP300 bromodomain (EP300-BD (1040-1161)); made in house; host or cells: E. coli BL21-CodonPlus (DE3), modified pET vector
T1 sequence (Q09472 1040-1161): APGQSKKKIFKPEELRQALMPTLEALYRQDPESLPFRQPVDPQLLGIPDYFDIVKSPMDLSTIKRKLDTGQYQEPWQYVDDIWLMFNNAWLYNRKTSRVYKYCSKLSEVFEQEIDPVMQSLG
Experiment: EP300 Alphascreen binding assay
Summary of the method: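 Displacement of a biotinylated acetyl-K56 histone H3 peptide from the N-His bromodomain construct (1040-1161) measured by AlphaScreen proximity, beads at 7.5 μg/ml final, read 60 min after addition. Protein, peptide and compound first incubated 1 h at room temperature, pH 7.5 HEPES buffer; IC50 by four-parameter logistic fit.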

| Compound | IC50 [nM] |
| --- | --- |
| Cc1noc(C)c1-c1cnc2c(c1)c(-c1ccc(C(=O)O)cc1Cl)cn2C(c1ccccn1)C1CCCC1 (stereo not drawn) [P-0027, 3-chloro-4-(1-(cyclopentyl(pyridin-2-yl)methyl)-5-(3,5-dimethylisoxazol-4-yl)-1H-pyrrolo[2,3-b]pyridin-3-yl)benzoic acid] | 0.1 to 1000 |
| Cc1cc(-c2cn(C(c3ccccn3)C3CCCC3)c3ncc(-c4c(C)noc4C)cc23)ccc1C(=O)O (stereo not drawn) [P-0028, 4-(1-(cyclopentyl(pyridin-2-yl)methyl)-5-(3,5-dimethylisoxazol-4-yl)-1H-pyrrolo[2,3-b]pyridin-3-yl)-2-methylbenzoic acid] | 0.1 to 1000 |
| Cc1noc(C)c1-c1cnc2c(c1)c(-c1ccc(C(=O)O)c(C(F)(F)F)c1)cn2C(c1ccccn1)C1CCCC1 (stereo not drawn) [P-0029, 4-(1-(cyclopentyl(pyridin-2-yl)methyl)-5-(3,5-dimethylisoxazol-4-yl)-1H-pyrrolo[2,3-b]pyridin-3-yl)-2-(trifluoromethyl)benzoic acid] | 0.1 to 1000 |
| Cc1noc(C)c1-c1cnc2c(c1)c(-c1ccc(C(=O)O)c(O)c1)cn2C(c1ccccn1)C1CCCC1 (stereo not drawn) [P-0030, 4-(1-(cyclopentyl(pyridin-2-yl)methyl)-5-(3,5-dimethylisoxazol-4-yl)-1H-pyrrolo[2,3-b]pyridin-3-yl)-2-hydroxybenzoic acid] | 1000 to 8000 |
| Cc1noc(C)c1-c1cnc2c(c1)c(-c1ccc(CC(=O)O)cc1)cn2C(c1ccccn1)C1CCCC1 (stereo not drawn) [P-0031, 2-(4-(1-(cyclopentyl(pyridin-2-yl)methyl)-5-(3,5-dimethylisoxazol-4-yl)-1H-pyrrolo[2,3-b]pyridin-3-yl)phenyl)acetic acid] | 0.1 to 1000 |
| Cc1noc(C)c1-c1cnc2c(c1)c(-c1ccc(C(C)(C)C(=O)O)cc1)cn2C(c1ccccn1)C1CCCC1 (stereo not drawn) [P-0032, 2-(4-(1-(cyclopentyl(pyridin-2-yl)methyl)-5-(3,5-dimethylisoxazol-4-yl)-1H-pyrrolo[2,3-b]pyridin-3-yl)phenyl)-2-methylpropanoic acid] | 0.1 to 1000 |
| Cc1noc(C)c1-c1cnc2c(c1)c(-c1ccc(C3(C(=O)O)CC3)cc1)cn2C(c1ccccn1)C1CCCC1 (stereo not drawn) [P-0033, 1-(4-(1-(cyclopentyl(pyridin-2-yl)methyl)-5-(3,5-dimethylisoxazol-4-yl)-1H-pyrrolo[2,3-b]pyridin-3-yl)phenyl)cyclopropane-1-carboxylic acid] | 0.1 to 1000 |
| Cc1noc(C)c1-c1cnc2c(c1)c(-c1ccc(C(F)(F)C(=O)O)cc1)cn2C(c1ccccn1)C1CCCC1 (stereo not drawn) [P-0034, 2-(4-(1-(cyclopentyl(pyridin-2-yl)methyl)-5-(3,5-dimethylisoxazol-4-yl)-1H-pyrrolo[2,3-b]pyridin-3-yl)phenyl)-2,2-difluoroacetic acid] | 0.1 to 1000 |
| COc1ncccc1-n1cc(-c2ccc(C(=O)O)cc2OC(F)(F)F)c2cc(-c3c(C)noc3C)cnc21 [P-0316, 4-(5-(3,5-dimethylisoxazol-4-yl)-1-(2-methoxypyridin-3-yl)-1H-pyrrolo[2,3-b]pyridin-3-yl)-3-(trifluoromethoxy)benzoic acid] | 0.1 to 1000 |
| Cc1ncccc1-n1cc(-c2ccc(C(=O)O)cc2OC(F)(F)F)c2cc(-c3c(C)noc3C)cnc21 [P-0317, 4-(5-(3,5-dimethylisoxazol-4-yl)-1-(2-methylpyridin-3-yl)-1H-pyrrolo[2,3-b]pyridin-3-yl)-3-(trifluoromethoxy)benzoic acid] | 0.1 to 1000 |
| Cc1noc(C)c1-c1cnc2c(c1)c(-c1ccc(C(=O)O)cc1OC(F)(F)F)cn2-c1cnn(C)c1 [P-0318, 4-(5-(3,5-dimethylisoxazol-4-yl)-1-(1-methyl-1H-pyrazol-4-yl)-1H-pyrrolo[2,3-b]pyridin-3-yl)-3-(trifluoromethoxy)benzoic acid] | 0.1 to 1000 |
| Cc1noc(C)c1-c1cnc2c(c1)c(-c1ccc(C(=O)O)cc1OC(F)(F)F)cn2-c1cncnc1 [P-0319, 4-(5-(3,5-dimethylisoxazol-4-yl)-1-(pyrimidin-5-yl)-1H-pyrrolo[2,3-b]pyridin-3-yl)-3-(trifluoromethoxy)benzoic acid] | 0.1 to 1000 |
| Cc1noc(C)c1-c1cnc2c(c1)c(-c1ccc(C(=O)O)cc1OC(F)(F)F)cn2-c1cnc(N)nc1 [P-0320, 4-(1-(2-aminopyrimidin-5-yl)-5-(3,5-dimethylisoxazol-4-yl)-1H-pyrrolo[2,3-b]pyridin-3-yl)-3-(trifluoromethoxy)benzoic acid] | 0.1 to 1000 |
| Cc1noc(C)c1-c1cnc2c(c1)c(-c1ccc(C(=O)O)cc1OC(F)(F)F)cn2-c1cnc(N(C)C)nc1 [P-0321] | 0.1 to 1000 |
| Cc1noc(C)c1-c1cnc2c(c1)c(-c1ccc(C(=O)O)cc1OC(F)(F)F)cn2-c1ccc(C(=O)O)cc1 [P-0322, 4-(1-(4-carboxyphenyl)-5-(3,5-dimethylisoxazol-4-yl)-1H-pyrrolo[2,3-b]pyridin-3-yl)-3-(trifluoromethoxy)benzoic acid] | 0.1 to 1000 |
| Cc1noc(C)c1-c1cnc2c(c1)c(-c1ccc(C(=O)O)cc1OC(F)(F)F)cn2-c1ccc(C(N)=O)cc1 [P-0323, 4-(1-(4-carbamoylphenyl)-5-(3,5-dimethylisoxazol-4-yl)-1H-pyrrolo[2,3-b]pyridin-3-yl)-3-(trifluoromethoxy)benzoic acid] | 0.1 to 1000 |
| COc1cc(C(=O)O)ncc1-c1cn(-c2ccncc2Cl)c2ncc(-c3c(C)noc3C)cc12 [P-0324, 5-(1-(3-chloropyridin-4-yl)-5-(3,5-dimethylisoxazol-4-yl)-1H-pyrrolo[2,3-b]pyridin-3-yl)-4-methoxypicolinic acid] | 0.1 to 1000 |
| Cc1noc(C)c1-c1cnc2c(c1)c(-c1ccc(C(=O)O)cc1OCC(F)F)cn2[C@H]1CCOC1 [P-0325, (S)-3-(2,2-difluoroethoxy)-4-(5-(3,5-dimethylisoxazol-4-yl)-1-(tetrahydrofuran-3-yl)-1H-pyrrolo[2,3-b]pyridin-3-yl)benzoic acid] | 0.1 to 1000 |
| CCn1cc(-n2cc(-c3ccc(C(=O)O)cc3OCC(F)F)c3cc(-c4c(C)noc4C)cnc32)c(C)n1 [P-0326, 3-(2,2-difluoroethoxy)-4-(5-(3,5-dimethylisoxazol-4-yl)-1-(1-ethyl-3-methyl-1H-pyrazol-4-yl)-1H-pyrrolo[2,3-b]pyridin-3-yl)benzoic acid] | 0.1 to 1000 |
| Cc1noc(C)c1-c1cnc2c(c1)c(-c1c(F)cc(C(=O)O)cc1OCC(F)F)cn2-c1ccccc1 [P-0327, 3-(2,2-difluoroethoxy)-4-(5-(3,5-dimethylisoxazol-4-yl)-1-phenyl-1H-pyrrolo[2,3-b]pyridin-3-yl)-5-fluorobenzoic acid] | 0.1 to 1000 |
| Cc1noc(C)c1-c1cnc2c(c1)c(-c1ccc(C(=O)O)cc1OCC(F)F)cn2-c1cnc(N2CCC2)nc1 [P-0328, 4-(1-(2-(azetidin-1-yl)pyrimidin-5-yl)-5-(3,5-dimethylisoxazol-4-yl)-1H-pyrrolo[2,3-b]pyridin-3-yl)-3-(2,2-difluoroethoxy)benzoic acid] | 0.1 to 1000 |
| CCOc1cc(C(=O)O)nc(OCC)c1-c1cn(-c2ccc(F)cc2F)c2ncc(-c3c(C)noc3C)cc12 [P-0329, 5-(1-(2,4-difluorophenyl)-5-(3,5-dimethylisoxazol-4-yl)-1H-pyrrolo[2,3-b]pyridin-3-yl)-4,6-diethoxypicolinic acid] | 0.1 to 1000 |
| CCOc1cc(C(=O)O)c(F)cc1-c1cn(-c2ccc(F)cc2F)c2ncc(-c3c(C)noc3C)cc12 [P-0330, 4-(1-(2,4-difluorophenyl)-5-(3,5-dimethylisoxazol-4-yl)-1H-pyrrolo[2,3-b]pyridin-3-yl)-5-ethoxy-2-fluorobenzoic acid] | 0.1 to 1000 |
| Cc1noc(C)c1-c1cnc2c(c1)c(-c1c(Cl)cc(C(=O)O)cc1OCC(F)F)cn2-c1cnc(N2CCC2)nc1 [P-0331, 4-(1-(2-(azetidin-1-yl)pyrimidin-5-yl)-5-(3,5-dimethylisoxazol-4-yl)-1H-pyrrolo[2,3-b]pyridin-3-yl)-3-chloro-5-(2,2-difluoroethoxy)benzoic acid] | 0.1 to 1000 |
| Cc1noc(C)c1-c1cnc2c(c1)c(-c1c(Cl)cc(C(=O)O)cc1OCC(F)F)cn2-c1ccccc1 [P-0332, 3-chloro-5-(2,2-difluoroethoxy)-4-(5-(3,5-dimethylisoxazol-4-yl)-1-phenyl-1H-pyrrolo[2,3-b]pyridin-3-yl)benzoic acid] | 0.1 to 1000 |
| Cc1noc(C)c1-c1cnc2c(c1)c(-c1c(Cl)cc(C(=O)O)cc1OCC(F)F)cn2[C@H]1CCOC1 [P-0333, (S)-3-chloro-5-(2,2-difluoroethoxy)-4-(5-(3,5-dimethylisoxazol-4-yl)-1-(tetrahydrofuran-3-yl)-1H-pyrrolo[2,3-b]pyridin-3-yl)benzoic acid] | 0.1 to 1000 |
| Cc1noc(C)c1-c1cnc2c(c1)c(-c1ccc(C(=O)O)cc1OC1CCC1)cn2-c1ncccc1C#N [P-0334, 4-(1-(3-cyanopyridin-2-yl)-5-(3,5-dimethylisoxazol-4-yl)-1H-pyrrolo[2,3-b]pyridin-3-yl)-3-cyclobutoxybenzoic acid] | 0.1 to 1000 |
| Cc1noc(C)c1-c1cnc2c(c1)c(-c1ccc(C(=O)O)cc1OC(F)(F)F)cn2C1(CC#N)CCC1 [P-0335, 4-(1-(1-(cyanomethyl)cyclobutyl)-5-(3,5-dimethylisoxazol-4-yl)-1H-pyrrolo[2,3-b]pyridin-3-yl)-3-(trifluoromethoxy)benzoic acid] | 0.1 to 1000 |
| Cc1noc(C)c1-c1cnc2c(c1)c(-c1ccc(C(=O)O)cc1OC(C)C)cn2-c1ncccc1C#N [P-0336, 4-(1-(3-cyanopyridin-2-yl)-5-(3,5-dimethylisoxazol-4-yl)-1H-pyrrolo[2,3-b]pyridin-3-yl)-3-isopropoxybenzoic acid] | 0.1 to 1000 |
| Cc1noc(C)c1-c1cnc2c(c1)c(-c1ccc(C(=O)O)cc1OC1CC1)cn2-c1ncccc1C#N [P-0337, 4-(1-(3-cyanopyridin-2-yl)-5-(3,5-dimethylisoxazol-4-yl)-1H-pyrrolo[2,3-b]pyridin-3-yl)-3-cyclopropoxybenzoic acid] | 0.1 to 1000 |

Source: patent US11446287B2, “Compounds and methods for EP300 or CBP modulation and indications therefor” (Opna Immuno-Oncology SA, priority 2019, dated 2022)
